# Results: ChEMBL document CHEMBL1201862, “PubChem BioAssay data set” (2004)
#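 Growth conditions: 96-well plates. Treatment: test compound, 48 hours, 5 concentrations. Analysis: linear interpolation between bracketing concentrations; unreached endpoints set to highest concentration. Here, GI50 denotes the concentration required for 50% inhibition of growth.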 Active and inactive are the calls of the source. Cut-off read from the data, not from the text of the source: active = GI50 up to about 1.1 µM and inactive = higher.
# Assays:
# Test in all cases: NCI tumour cell line growth inhibition, 48 h
# A498 = test system: A498
# HOP-62 = test system: HOP-62
# IGROV-1 = test system: IGROV-1
# K562 = test system: K562
# MDA-MB-435 = test system: MDA-MB-435
# MOLT-4 = test system: MOLT-4
# NCI-H522 = test system: NCI-H522
# OVCAR-3 = test system: OVCAR-3
# OVCAR-5 = test system: OVCAR-5
# PC-3 = test system: PC-3
# RPMI-8226 = test system: RPMI-8226
# SF-295 = test system: SF-295
# SF-539 = test system: SF-539
# SK-MEL-2 = test system: SK-MEL-2
# SK-MEL-5 = test system: SK-MEL-5
# SK-OV-3 = test system: SK-OV-3
# SNB-75 = test system: SNB-75
# SR = test system: SR
# TK-10 = test system: TK-10
# UACC-62 = test system: UACC-62
SMILES,GI50 (A498),GI50 (HOP-62),GI50 (IGROV-1),GI50 (K562),GI50 (MDA-MB-435),GI50 (MOLT-4),GI50 (NCI-H522),GI50 (OVCAR-3),GI50 (OVCAR-5),GI50 (PC-3),GI50 (RPMI-8226),GI50 (SF-295),GI50 (SF-539),GI50 (SK-MEL-2),GI50 (SK-MEL-5),GI50 (SK-OV-3),GI50 (SNB-75),GI50 (SR),GI50 (TK-10),GI50 (UACC-62)
COc1cc(C2c3cc4c(cc3OC(O)C2C)OCO4)cc(OC)c1OC (stereo not given),0.483 µM (active),0.306 µM (active),0.553 µM (active),0.142 µM (active),0.0377 µM (active),0.473 µM (active),0.207 µM (active),0.243 µM (active),4.78 µM (inactive),0.228 µM (active),0.264 µM (active),0.324 µM (active),0.294 µM (active),0.486 µM (active),0.272 µM (active),0.414 µM (active),0.244 µM (active),0.2 µM (active),34.9 µM (inactive),0.349 µM (active)
Nc1ccc2c(c1)N(C(=O)CCCC(=O)N1CC(CCl)c3ccc(N)cc31)CC2CCl (stereo not given),1.07 µM (active),0.262 µM (active),0.411 µM (active),0.873 µM (active),0.953 µM (active),0.0646 µM (active),0.0713 µM (active),0.971 µM (active),0.875 µM (active),1.08 µM (active),0.26 µM (active),0.4 µM (active),0.461 µM (active),0.587 µM (active),0.236 µM (active),2.34 µM (inactive),0.535 µM (active),0.017 µM (active),1.53 µM (inactive),0.354 µM (active)
CC(C)(C)c1ccc(C(O)(c2ccc(C(C)(C)C)cc2)c2ccc(C(C)(C)C)cc2)cc1,> 100 µM (inactive),> 100 µM (inactive),> 100 µM (inactive),> 100 µM (inactive),> 100 µM (inactive),> 100 µM (inactive),> 100 µM (inactive),> 100 µM (inactive),> 100 µM (inactive),> 100 µM (inactive),52.2 µM (inactive),> 100 µM (inactive),> 100 µM (inactive),> 100 µM (inactive),> 100 µM (inactive),> 100 µM (inactive),> 100 µM (inactive),> 100 µM (inactive),> 100 µM (inactive),> 100 µM (inactive)
CSC[C@H](NC(=O)COc1cccc2cnccc12)C(=O)NC(Cc1ccccc1)C(O)C(=O)N1CSC[C@H]1C(=O)NC(C)(C)C (stereo not given in full),68.2 µM (inactive),> 100 µM (inactive),> 100 µM (inactive),32.5 µM (inactive),87.5 µM (inactive),17.7 µM (inactive),> 100 µM (inactive),69.8 µM (inactive),> 100 µM (inactive),24 µM (inactive),23.6 µM (inactive),60.4 µM (inactive),11 µM (inactive),> 100 µM (inactive),> 10 µM (inactive),> 100 µM (inactive),78.9 µM (inactive),36.8 µM (inactive),> 100 µM (inactive),57.3 µM (inactive)
O=C1CSC(c2ccccc2[N+](=O)[O-])N1c1ccc(-n2c(-c3ccccc3)nc3ccccc3c2=O)cc1 (stereo not given),38.4 µM (inactive),21.3 µM (inactive),46.1 µM (inactive),79.6 µM (inactive),> 100 µM (inactive),16.6 µM (inactive),22.4 µM (inactive),79.6 µM (inactive),> 100 µM (inactive),35.7 µM (inactive),> 100 µM (inactive),24.5 µM (inactive),59 µM (inactive),55.8 µM (inactive),70.5 µM (inactive),12.5 µM (inactive),19.5 µM (inactive),19.8 µM (inactive),29.6 µM (inactive),33.4 µM (inactive)
O=C1CC(=O)NC(NN2C(=O)CSC2c2ccc(Cl)cc2)=N1 (stereo not given),> 100 µM (inactive),24.9 µM (inactive),> 100 µM (inactive),> 100 µM (inactive),> 100 µM (inactive),28 µM (inactive),> 100 µM (inactive),> 100 µM (inactive),> 100 µM (inactive),> 100 µM (inactive),> 100 µM (inactive),> 100 µM (inactive),> 100 µM (inactive),> 100 µM (inactive),> 100 µM (inactive),> 100 µM (inactive),> 100 µM (inactive),39.2 µM (inactive),> 100 µM (inactive),21.8 µM (inactive)
CC(=O)O[C@H]1CC[C@@]2(C)C(=CC[C@H]3[C@@H]4C[C@H](N5CCOCC5)[C@H](OC(C)=O)[C@@]4(C)CC[C@@H]32)C1,> 100 µM (inactive),> 100 µM (inactive),> 100 µM (inactive),25.4 µM (inactive),> 100 µM (inactive),> 100 µM (inactive),> 100 µM (inactive),> 100 µM (inactive),> 100 µM (inactive),> 100 µM (inactive),92.5 µM (inactive),> 100 µM (inactive),78 µM (inactive),> 100 µM (inactive),> 100 µM (inactive),> 100 µM (inactive),71.6 µM (inactive),86.5 µM (inactive),> 100 µM (inactive),> 100 µM (inactive)
CN1CCN(CCCCNc2cc3c4ccccc4c(NCCCCN4CCN(C)CC4)cc3c3ccccc23)CC1,12 µM (inactive),3.59 µM (inactive),1.93 µM (inactive),1.57 µM (inactive),0.184 µM (active),0.41 µM (active),1.93 µM (inactive),2.98 µM (inactive),5.56 µM (inactive),3.31 µM (inactive),1.38 µM (inactive),1.78 µM (inactive),1.94 µM (inactive),5.05 µM (inactive),1.44 µM (inactive),14.6 µM (inactive),3.38 µM (inactive),0.443 µM (active),6.95 µM (inactive),2.28 µM (inactive)
O=C(O)C(=Cc1ccc(-c2ccccc2)cc1)C(=O)O,19.3 µM (inactive),6.75 µM (inactive),23.3 µM (inactive),5.7 µM (inactive),9.16 µM (inactive),15.8 µM (inactive),6.82 µM (inactive),5.53 µM (inactive),> 39.5 µM (inactive),9.08 µM (inactive),4.26 µM (inactive),18.6 µM (inactive),4.78 µM (inactive),6.95 µM (inactive),11 µM (inactive),12.6 µM (inactive),10.6 µM (inactive),1.49 µM (inactive),13.8 µM (inactive),12.3 µM (inactive)
Oc1ccc(Nc2nc(Cl)c3nc[nH]c3n2)cc1,> 100 µM (inactive),> 100 µM (inactive),67.6 µM (inactive),50.8 µM (inactive),> 100 µM (inactive),> 100 µM (inactive),> 100 µM (inactive),> 100 µM (inactive),> 100 µM (inactive),> 100 µM (inactive),61.4 µM (inactive),> 100 µM (inactive),> 100 µM (inactive),27.2 µM (inactive),> 100 µM (inactive),> 100 µM (inactive),> 100 µM (inactive),28.1 µM (inactive),> 100 µM (inactive),> 100 µM (inactive)
Oc1c(C(O)(c2ccccc2)c2ccc3ccccc3c2O)ccc2ccccc12,16.1 µM (inactive),15 µM (inactive),7.36 µM (inactive),2.88 µM (inactive),14.1 µM (inactive),1.88 µM (inactive),4.01 µM (inactive),6.47 µM (inactive),17.8 µM (inactive),8.26 µM (inactive),2.11 µM (inactive),16.5 µM (inactive),19 µM (inactive),12.4 µM (inactive),5.68 µM (inactive),17.9 µM (inactive),14.7 µM (inactive),1.26 µM (inactive),13 µM (inactive),10.6 µM (inactive)
COc1cccc2c1C(=O)c1c(O)c3c(c(O)c1C2=O)C[C@@](O)(C(C)=O)C[C@@H]3OC1CC(O)C(O)C(C)O1 (stereo not given in full),3.05 µM (inactive),0.307 µM (active),3.05 µM (inactive),0.925 µM (active),8.95 µM (inactive),0.0208 µM (active),1.82 µM (inactive),3.69 µM (inactive),1.04 µM (active),4.95 µM (inactive),0.485 µM (active),0.673 µM (active),0.9 µM (active),4.81 µM (inactive),0.875 µM (active),4.51 µM (inactive),1.62 µM (inactive),0.00935 µM (active),5.74 µM (inactive),1.04 µM (active)
O=C(O)CCc1nc2c(n1-c1ccccc1)C(=O)c1ccccc1C2=O,> 100 µM (inactive),> 100 µM (inactive),> 100 µM (inactive),> 100 µM (inactive),87.5 µM (inactive),> 100 µM (inactive),38.5 µM (inactive),> 100 µM (inactive),> 100 µM (inactive),> 100 µM (inactive),> 100 µM (inactive),> 100 µM (inactive),> 100 µM (inactive),95.9 µM (inactive),> 100 µM (inactive),> 100 µM (inactive),> 100 µM (inactive),> 100 µM (inactive),> 100 µM (inactive),> 100 µM (inactive)
CN(C)c1ccc(/C=C2\C[C@H]3[C@@H]4CCc5cc(OCCN6CCCC6)ccc5[C@H]4CC[C@]3(C)[C@H]2O)cc1,17.8 µM (inactive),15.1 µM (inactive),16.1 µM (inactive),4.74 µM (inactive),8.43 µM (inactive),9.48 µM (inactive),4.26 µM (inactive),14.6 µM (inactive),14.7 µM (inactive),13.8 µM (inactive),8.28 µM (inactive),13.1 µM (inactive),8.32 µM (inactive),19.3 µM (inactive),9.66 µM (inactive),16.6 µM (inactive),13.8 µM (inactive),3.29 µM (inactive),5.5 µM (inactive),20 µM (inactive)
